Broadly, the IC50 is the concentration that gives 50% inhibition.

The target in this experiment is Human Factor D (Homo sapiens (Human), UniProt P00746). The experiment is described as follows: Human Factor D Assay. The format is biochemical. The following applies: Human Factor D 80 nM, substrate Z-L-Lys-SBzl, DTNB, A405; read-out: IC50 (Stars). The method, boiled down:
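Serum-purified enzyme (80 nM final) was preincubated with compound 5 min at room temperature in 50 mM Tris, 1M NaCl, pH 7.5. Z-L-Lys-SBzl and DTNB ([…] each, final) were added and A405 followed every 30 s for 30 min; IC50 from nonlinear regression of reaction rates.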

Where only a bound is given, the exact number is not on record here.

Human Factor D, sequence (P00746 26-253): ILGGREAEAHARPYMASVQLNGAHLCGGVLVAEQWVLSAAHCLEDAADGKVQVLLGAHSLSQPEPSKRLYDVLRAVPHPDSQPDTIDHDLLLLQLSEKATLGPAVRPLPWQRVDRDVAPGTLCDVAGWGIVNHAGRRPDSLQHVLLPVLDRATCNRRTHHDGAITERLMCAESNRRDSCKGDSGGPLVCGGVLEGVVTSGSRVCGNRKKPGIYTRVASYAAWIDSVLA

Take `CC(=O)c1nn2c3c(nc(-c4cnc(C)nc4)cc13)CCCCCCCOC[C@@]13C[C@@H](C(=O)Nc4nc(C(F)(F)F)ccc4C)N(C(=O)C2)[C@@H]1C3` [Compound T-163]: the IC50 was less than 1000 nM.

In the case of `CC(=O)c1nn(CC(=O)N2[C@H]3C[C@@]4(CNC(=O)CCOCc5ccc(Br)nc5NC3=O)C[C@@H]24)c2ccc(-c3cnc(C)nc3)cc12` [Compound T-164], the IC50 was less than 1000 nM.

As to `CC(=O)c1nn(CC(=O)N2[C@H]3C[C@@]4(COc5cccc(n5)CCCCCCCc5ccc(Br)nc5NC3=O)C[C@@H]24)c2ccc(-c3cnc(C)nc3)cc12` [Compound T-165], the half-inhibitory concentration (IC50) is less than 1000 nM.

As to `CC(=O)c1nn2c3c(cc(-c4cnc(C)nc4)cc13)CC=CCCCC(=O)NC[C@]1(F)CN(C[C@@H]1C(=O)Nc1nc(C(F)(F)F)ccc1C)C(=O)C2` [Compound T-167], the half-maximal inhibitory concentration (IC50) is less than 1000 nM.

Take `CC(=O)c1nn2c3c(cc(-c4cnc(C)nc4)cc13)CCCCCCC(=O)NC[C@@]1(F)C[C@@H](C(=O)Nc3nc(C(F)(F)F)ccc3C)N(C1)C(=O)C2` [Compound T-168]: the IC50 was less than 1000 nM.

In the case of `CC(=O)c1nn(CC(=O)N2C[C@@]3(F)CNC(=O)CCCCCOCc4ccc(Br)nc4NC(=O)[C@@H]2C3)c2cnc(-c3cnc(C)nc3)cc12` [Compound T-169], the concentration for half-maximal inhibition (IC50) was less than 1000 nM.

Take `CC(=O)c1nn(CC(=O)N2C[C@@]3(F)CNC(=O)C(C)(C)CC=CCOCc4ccc(Br)nc4NC(=O)[C@@H]2C3)c2cnc(-c3cnc(C)nc3)cc12` [Compound T-170]: the half-inhibitory concentration (IC50) was less than 1000 nM.

For the molecule `CC(=O)c1nn(CC(=O)N2C[C@@]3(F)CNC(=O)C(C)(C)CCCCOCc4ccc(Br)nc4NC(=O)[C@@H]2C3)c2cnc(-c3cnc(C)nc3)cc12` [Compound T-171], the IC50 is less than 1000 nM.

On to `CC(=O)c1nn(CC(=O)N2C[C@@]3(F)CNC(=O)C(C)(C)CC=CCOCc4ccc(Br)nc4NC(=O)[C@@H]2C3)c2ccc(-c3cnc(C)nc3)cc12` [Compound T-172], for which the IC50 is less than 1000 nM.

Turning to `CC(=O)c1nn(CC(=O)N2C[C@@]3(F)CNC(=O)C(C)(C)CCCCOCc4ccc(Br)nc4NC(=O)[C@@H]2C3)c2ccc(-c3cnc(C)nc3)cc12` [Compound T-173], the IC50 is less than 1000 nM.

Regarding `CC(=O)c1nn2c3c(cc(-c4cnc(C)nc4)cc13)CC=CCCCC(=O)NC[C@@]1(F)C[C@@H](C(=O)Nc3nc(Br)ccc3C)N(C1)C(=O)C2` [Compound T-174], the half-inhibitory concentration (IC50) was less than 1000 nM.

On to `CC(=O)c1nn2c3c(cc(-c4cnc(C)nc4)cc13)CCCCCCC(=O)NC[C@@]1(F)C[C@@H](C(=O)Nc3nc(Br)ccc3C)N(C1)C(=O)C2` [Compound T-175], for which the IC50 is less than 1000 nM.

With `CC(=O)c1nn2c3c(cc(-c4cnc(C)nc4)cc13)CCCCCCC(=O)NC[C@@]13C[C@@H](C(=O)N[C@@H](C)c4ccccc4)N(C(=O)C2)[C@@H]1C3` [Compound T-176], the 50% inhibitory concentration (IC50) is less than 1000 nM.

Regarding `CC(=O)c1nn2c3c(cc(-c4cnc(C)nc4)cc13)CCCCCCC(=O)NC[C@@]13C[C@@H](C(=O)NCCC(C)(C)C)N(C(=O)C2)[C@@H]1C3` [Compound T-177], the IC50 was less than 1000 nM.

Consider `CC(=O)c1nn(CC(=O)N2C[C@@]3(F)CNC(=O)CCCCCOCc4ccc(Br)nc4NC(=O)[C@@H]2C3)c2ccc(-c3cnc(C)nc3)cc12` [Compound T-178], for which the IC50 is less than 1000 nM.

Regarding `CC(=O)c1nn(CC(=O)N2C[C@@]3(F)COCCCCCCc4ccc(Br)nc4NC(=O)[C@@H]2C3)c2cnc(-c3cnc(C)nc3)cc12` [Compound T-179], the IC50 is less than 1000 nM.

Take `CC(=O)c1nn(CC(=O)N2[C@H]3C[C@@]4(CNC(=O)C(C)(C)CCCCCc5ccc(Br)nc5NC3=O)C[C@@H]24)c2cnc(-c3cnc(C)nc3)cc12` [Compound T-180]: the concentration for half-maximal inhibition (IC50) was less than 1000 nM.

With `CC(=O)c1nn(CC(=O)N2[C@H]3C[C@@]4(CNC(=O)C(C)(C)CCCCc5ccc(Br)nc5NC3=O)C[C@@H]24)c2cnc(-c3cnc(C)nc3)cc12` [Compound T-181], the IC50 is less than 1000 nM.

In the case of `CC(=O)c1nn(CC(=O)N2[C@H]3C[C@@]4(CNC(=O)C(C)(C)CCCCCc5ccc(Br)nc5NC3=O)C[C@@H]24)c2ccc(-c3cnc(C)nc3)cc12` [Compound T-182], the IC50 was less than 1000 nM.

As for `CC(=O)c1nn(CC(=O)N2[C@H]3C[C@@]4(CNC(=O)C(C)(C)CCCCc5ccc(Br)nc5NC3=O)C[C@@H]24)c2ccc(-c3cnc(C)nc3)cc12` [Compound T-183], the half-inhibitory concentration (IC50) was less than 1000 nM.

Take `CC(=O)c1nn2c3c(cc(-c4cnc(C)nc4)cc13)CC=CCCC(C)(C)C(=O)NC[C@@]13C[C@@H](C(=O)Nc4ccn(CC(F)(F)F)n4)N(C(=O)C2)[C@@H]1C3` [Compound T-184]: the concentration for half-maximal inhibition (IC50) was less than 1000 nM.

Take `CC(=O)c1nn2c3c(cc(-c4cnc(C)nc4)cc13)CCCCCC(C)(C)C(=O)NC[C@@]13C[C@@H](C(=O)Nc4ccn(CC(F)(F)F)n4)N(C(=O)C2)[C@@H]1C3` [Compound T-185]: the concentration for half-maximal inhibition (IC50) was less than 1000 nM.

`CC(=O)c1nn2c3c(cc(-c4cnc(C)nc4)cc13)CCCCCC(C)(C)C(=O)N(C)C[C@@]13C[C@@H](C(=O)Nc4cccc(C(F)(F)F)n4)N(C(=O)C2)[C@@H]1C3` [Compound T-186]: the IC50 is less than 1000 nM.

Take `Cc1ncc(-c2cc3c4c(c2)c(C(N)=O)nn4CC(=O)N2[C@H](C(=O)Nc4nc(C(F)(F)F)ccc4C)C[C@@]4(COCCCCCCC3)C[C@@H]24)cn1` [Compound T-187]: the 50% inhibitory concentration (IC50) was less than 1000 nM.

In the case of `CC(=O)c1nn2c3c(cc(-c4cnc(C)nc4)cc13)CCCCCCC(=O)NC[C@@]13C[C@@H](C(=O)N[C@H](C)c4ccccc4)N(C(=O)C2)[C@@H]1C3` [Compound T-188], the half-inhibitory concentration (IC50) was less than 1000 nM.

As for `CC(=O)c1nn2c3c(cc(-c4cnc(C)nc4)cc13)CC=CCCCC(=O)NC[C@@]13C[C@@H](C(=O)Nc4cc(C)cc(Br)n4)N(C(=O)C2)[C@@H]1C3` [Compound T-189], the IC50 is less than 1000 nM.

For `CC(=O)c1nn2c3c(cc(-c4cnc(C)nc4)cc13)CCCCCCC(=O)NC[C@@]13C[C@@H](C(=O)Nc4cc(C)cc(Br)n4)N(C(=O)C2)[C@@H]1C3` [Compound T-190], the IC50 is less than 1000 nM.

For `CC(=O)c1nn2c3c(cc(-c4cnc(C)nc4)cc13)CCCCCC(C)(C)C(=O)N(C)C[C@@]13C[C@@H](C(=O)Nc4ccn(CC(F)(F)F)n4)N(C(=O)C2)[C@@H]1C3` [Compound T-191], the IC50 is less than 1000 nM.

For `CC(=O)c1nn(CC(=O)N2[C@H]3C[C@@]4(COCC=CCOCc5ccc(Br)nc5NC3=O)C[C@@H]24)c2c(C)cc(-c3cnc(C)nc3)cc12` [Compound T-192], the IC50 was less than 1000 nM.

`CC(=O)c1nn(CC(=O)N2[C@H]3C[C@@]4(COCC=CCOCc5ccc(Br)nc5NC3=O)C[C@@H]24)c2c(C)nc(-c3cnc(C)nc3)cc12` [Compound T-193]: the half-inhibitory concentration (IC50) was less than 1000 nM.

In the case of `CC(=O)c1nn(CC(=O)N2C[C@@]3(F)COCCCCCCCCc4ccc(Br)nc4NC(=O)[C@@H]2C3)c2ccc(-c3cnc(C)nc3)cc12` [Compound T-194], the IC50 is less than 1000 nM.

In the case of `CC(=O)c1nn(CC(=O)N2C[C@@]3(F)COCCCCCCc4ccc(Br)nc4NC(=O)[C@@H]2C3)c2ccc(-c3cnc(C)nc3)cc12` [Compound T-195], the IC50 is less than 1000 nM.

Turning to `CC(=O)c1nn2c3c(cc(-c4cnc(C)nc4)cc13)CCCCCCC(=O)NC[C@@]13C[C@@H](C(=O)NC[Si](C)(C)C)N(C(=O)C2)[C@@H]1C3` [Compound T-196], the half-inhibitory concentration (IC50) fell in the range of 1000 to 10000 nM.

Take `CC(=O)c1nn2c3c(cc(-c4cnc(C)nc4)cc13)CCCCCCC(=O)NC[C@@]13C[C@@H](C(=O)NC/C(F)=C(/C)c4ccccc4)N(C(=O)C2)[C@@H]1C3` [Compound T-197]: the half-maximal inhibitory concentration (IC50) is less than 1000 nM.

On to `CC(=O)c1nn2c3c(cc(-c4cnc(C)nc4)cc13)CCCCCCC(=O)NC[C@@]13C[C@@H](C(=O)NCC(F)=C(C)C)N(C(=O)C2)[C@@H]1C3` [Compound T-198], for which the IC50 was less than 1000 nM.

Take `CCCCNC(=O)[C@@H]1C[C@]23CNC(=O)CCCCCCc4cc(-c5cnc(C)nc5)cc5c(C(C)=O)nn(c45)CC(=O)N1[C@@H]2C3` [Compound T-199]: the half-inhibitory concentration (IC50) is less than 1000 nM.

In the case of `CCCCCNC(=O)[C@@H]1C[C@]23CNC(=O)CCCCCCc4cc(-c5cnc(C)nc5)cc5c(C(C)=O)nn(c45)CC(=O)N1[C@@H]2C3` [Compound T-200], the half-inhibitory concentration (IC50) was less than 1000 nM.

As for `CC(=O)c1nn2c3c(cc(-c4cnc(C)nc4)cc13)CCCCCCC(=O)NC[C@@]13C[C@@H](C(=O)NCC(C)(C)C)N(C(=O)C2)[C@@H]1C3` [Compound T-201], the half-maximal inhibitory concentration (IC50) is less than 1000 nM.

Turning to `CC(=O)c1nn2c3c(cc(-c4cnc(C)nc4)cc13)CCCCCCC(=O)N(C)C[C@@]13C[C@@H](C(=O)Nc4ccn(CC(F)(F)F)n4)N(C(=O)C2)[C@@H]1C3` [Compound T-203], the half-inhibitory concentration (IC50) was less than 1000 nM.

Take `CC(=O)c1nn2c3c(cc(-c4cnc(C)nc4)cc13)CC=CCCCC(=O)N(C)C[C@@]13C[C@@H](C(=O)Nc4ccn(CC(F)(F)F)n4)N(C(=O)C2)[C@@H]1C3` [Compound T-204]: the 50% inhibitory concentration (IC50) is less than 1000 nM.

Take `CC(=O)c1nn2c3c(cc(-c4cnc(C)nc4)cc13)CCCCC[C@@H](C)C(=O)N(C)C[C@@]13C[C@@H](C(=O)Nc4nc(C(F)(F)F)ccc4C)N(C(=O)C2)[C@@H]1C3` [Compound T-205]: the half-maximal inhibitory concentration (IC50) is less than 1000 nM.

Take `CC(=O)c1nn2c3c(cc(-c4cnc(C)nc4)cc13)CCCCCCC(=O)NC[C@@]13C[C@@H](C(=O)N[C@@H](C)COC(F)(F)F)N(C(=O)C2)[C@@H]1C3` [Compound T-206]: the IC50 is less than 1000 nM.

As for `CC(=O)c1nn2c3c(cc(-c4cnc(C)nc4)cc13)CCCCCCC(=O)NC[C@@]13C[C@@H](C(=O)N[C@H](C)COC(F)(F)F)N(C(=O)C2)[C@@H]1C3` [Compound T-207], the IC50 is less than 1000 nM.

`CC(=O)c1nn2c3c(cc(-c4cnc(C)nc4)cc13)CCCCCCC(=O)NC[C@@]13C[C@@H](C(=O)NCCOC(F)(F)F)N(C(=O)C2)[C@@H]1C3` [Compound T-208]: the concentration for half-maximal inhibition (IC50) was less than 1000 nM.

Take `COc1cc(Br)nc(NC(=O)[C@@H]2C[C@]34CNC(=O)CCCC=CCc5cc(-c6cnc(C)nc6)cc6c(C(C)=O)nn(c56)CC(=O)N2[C@@H]3C4)c1` [Compound T-209]: the IC50 is less than 1000 nM.

`COc1cc(Br)nc(NC(=O)[C@@H]2C[C@]34CNC(=O)CCCCCCc5cc(-c6cnc(C)nc6)cc6c(C(C)=O)nn(c56)CC(=O)N2[C@@H]3C4)c1` [Compound T-210]: the IC50 is less than 1000 nM.
